Experiments:
Format in all cases: biochemical
β-secretase (BACE) [1] = biological target: T1, β-secretase (BACE) (Homo sapiens, UniProt P56817); assay: BACE Assay-2 (Example 159), FS1 substrate, kinetic fluorescence; conditions: procedure of Example 159
T1 construct: purchased Panvera
Description: (§1) The FS1-substrate stock solution was prepared in DMSO as a 10 mg/mL solution. The FS1-substrate working solution was prepared by diluting the 10 mg/mL stock solution with substrate assay buffer to a final concentration of 300 μg/mL. The β-secretase (BACE) working solution was prepared by diluting a 0.83 mg/mL BACE stock solution with enzyme assay buffer to a final concentration of 4 μg/mL.
Test compounds were dissolved in DMSO at 10 mM.
(§2) The procedure for this assay was as follows: 15 μL of BACE working solution was pipetted into each well of a 96-well plate. To each well was then pipetted 2 μL of test compound at the selected concentration. Test compound and BACE were then mixed with a pipettor and incubated for 20 min at room temperature. To each well was then added 10 μL of the FS1 substrate working solution.
(§3) The procedure for the positive control was as follows: 15 μL of BACE working solution was pipetted into each well to be used as a positive control. To each well was then pipetted 2 μL of vehicle. Vehicle and BACE were then mixed with a pipettor and incubated for 20 min at room temperature. To each well was then added 10 μL of the FS1 substrate working solution.
For test compounds, measured at multiple concentrations, the measured T0 and T60 values were used to calculate an IC50 value using Graphpad Software (or PIR). For test compounds, Ki inhibition was determined as follows: For each compound concentration and positive control, rate of cleavage of substrate (Vi, where i=compound concentration in μM) was determined as Δ Fluorescence/Δ time (min). Cleavage rates (Vi) were plotted as a function of inhibitor concentration in μM [I]. The Ki was then determined by fitting the following equation to the graph of [I] vs Vi Y=aVmax/(50+24*(1+X/Ki)),

β-secretase (BACE) [2] = biological target: T1, β-secretase (BACE); assay: BACE Assay-1 (Example 158), MCA-substrate fluorescence; conditions: procedure of Example 158
Description: The following standards are reagents were used in this assay: Sodium Citrate trisodium salt dihydrate (Sigma), Citric Acid monohydrate (Merck), PEG8000 (Sigma), MCA-substrate (Bachem), β-secretase (BACE) (Panvera), 96-well plate zwart (Costar (Elscolab)), StatVal (Bachem).
The following standard assay buffer solution was prepared and used in this assay: 0.05 M, pH 5.0 mixture of sodium citrate trisodium salt dihydrate (9.56 g), citric acid monohydrate (3.68 g) and PEG8000 (0.50 g).
The MCA-substrate stock solution was prepared by mixing 10 mg MCA-substrate with 5 mL DMSO for a final solution concentration of 2.0 mg/mL. The substrate work solution was prepared by mixing 0.1 mL substrate in 1.90 mL assay buffer for a final concentration of 0.05 mM. The β-secretase (BACE) work solution was prepared by mixing 8 μL BACE in 2 mL assay buffer for a final concentration of 10 μg/mL.
The screen procedure for this assay was as follows. 60 μL of assay buffer was pippeted into each well of a 96-well plate. To each well was then pipetted 1 μL of test compound at the selected concentration. To each well was then added 20 μL of the β-secretase work solution and 20 μL of the MCA-substrate stock solution.
The procedure for the blank was as follows. 80 μL of assay buffer was pipetted into each well to be used as a blank control. To each well was then added 1 μL of DMSO and 20 μL of MCA-substrate solution in each well.
The procedure for the positive control was as follows. 60 μL of assay buffer was pipetted into each well to be used as a positive control. To each well was then added 1 μL of DMSO, 20 μL of BACE work solution and 20 μL of MCA-substrate stock solution.
For test compounds, measured at multiple concentrations, the measured T0 and T60 values were used to calculate an IC50 value using Graphpad Software (or PIR).

β-secretase (BACE) [3] = biological target: T1, β-secretase (BACE); assay: BACE FS1% Inhibition Assay (Example 160); conditions: for inhibition at 3 µM / inhibition at 10 µM / inhibition at 0.3 µM / inhibition at 1 µM: read-out: % Inhibition (FS); for inhibition at 10 µM: 10 μM test compound
Description: The following reagents were used in this assay: sodium acetate, PEB8000 (Sigma), DMSO, HEPES, FS1 substrate [[…]], β-secretase (BACE) (Panvera), and 96-well plate (HE microplate, Molecular Devices). […] The FS1-substrate stock solution was prepared in DMSO as a 10 mg/mL solution. The FS1-substrate working solution was prepared by diluting the 10 mg/mL stock solution with substrate assay buffer to a final concentration of 300 μg/mL. The β-secretase (BACE) working solution was prepared by diluting a 0.83 mg/mL BACE stock solution with enzyme assay buffer to a final concentration of 4 μg/mL. Test compounds were dissolved in DMSO to 10 mM. […] The screening procedure for this assay was as follows: 15 μL of BACE working solution was pipetted into each well of a 96-well plate. To each well was the pipetted 2 μL of test compound at the selected concentration. Test compound and BACE were then mixed with a pipettor and incubated for 20 min at room temperature. To each well was then added 10 μL of the FS1 substrate working solution. The plates were then incubated for 1 hour at room temperature. […] The procedure for the blank was as follows. 15 μL of assay buffer was pipetted into each well to be used as a blank control. To each well was then added 2 μL of vehicle and 10 μL of FS1-substrate working solution. The plates were then incubated for 1 hour at room temperature. […] The procedure for the positive control was as follows: 15 μL of BACE working solution was pipetted into each well to be used as a positive control. To each well was then pipetted 2 μL of vehicle. Vehicle and BACE were then mixed with a pipettor and incubated for 20 min at room temperature. To each well was then added 10 μL of the FS1 substrate working solution. The plates were then incubated for 1 hour at room temperature. […] For test compounds, % inhibition was determined at each concentration as follows: [formula]

β-secretase (BACE) [4] = biological target: T1, β-secretase (BACE); assay: BACE % Inhibition Assay (Example 161), (Aedens)-[…]-(Dabcyl K-amide) substrate; conditions: % error ±10%
Description: The following reagents were used in this assay: sodium acetate, PEG8000 (Sigma), DMSO, HEPES, (Aedens)-[…]-(Dabcyl K-amide) substrate, β-secretase (BACE) (Panvera), and 96-well plate (HE microplate, Molecular Devices).
as §1, with “substrate” for “FS1-substrate”
Test compounds were dissolved in DMSO to 10 mM.
as §2, with “The screening” for “The”, “the” for “the FS1”, “solution. The plates were then incubated for 1 hour at room temperature.” for “solution.”
The procedure for the blank was as follows. 15 μL of assay buffer was pipetted into each well to be used as a blank control. To each well was then added 2 μL of vehicle and 10 μL of substrate working solution. The plates were then incubated for 1 hour at room temperature.
as §3, with “15 μl” for “15 μL”, “the” for “the FS1”, “solution. The plates were then incubated for 1 hour at room temperature.” for “solution.”
For test compounds, % inhibition was determined at each concentration as follows: % Inhibition=[[…]][FI(positive control)−FI(negative control)]

T1 sequence (P56817 46-501): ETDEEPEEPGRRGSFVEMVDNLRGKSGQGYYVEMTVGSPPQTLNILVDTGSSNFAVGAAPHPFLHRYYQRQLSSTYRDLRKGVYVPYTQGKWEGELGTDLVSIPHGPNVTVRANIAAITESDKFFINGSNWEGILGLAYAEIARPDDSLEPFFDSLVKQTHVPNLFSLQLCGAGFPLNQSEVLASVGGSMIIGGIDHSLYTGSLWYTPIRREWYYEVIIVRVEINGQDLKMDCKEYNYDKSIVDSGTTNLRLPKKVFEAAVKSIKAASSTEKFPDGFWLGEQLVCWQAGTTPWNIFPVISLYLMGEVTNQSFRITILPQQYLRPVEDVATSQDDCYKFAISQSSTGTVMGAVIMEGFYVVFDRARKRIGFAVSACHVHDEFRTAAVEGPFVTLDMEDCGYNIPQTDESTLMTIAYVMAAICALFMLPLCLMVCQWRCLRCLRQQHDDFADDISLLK

CCCC(CCCC(=O)NC1CCCCC1)N1Cc2cc(Oc3ccccc3)ccc2N=C1N (stereo not drawn) [Compound 91]
Ki (β-secretase (BACE) [1]): 0.32 µM | IC50 (β-secretase (BACE) [2]): 0.6 µM | inhibition at 3 µM (β-secretase (BACE) [3]; 3 μM test compound): 68% | inhibition at 10 µM (β-secretase (BACE) [3]): 117%

CCC[C@H](CNC(=O)CCC(C)C)N1Cc2cc(Oc3ccccc3)ccc2N=C1N [Compound 603]
Ki (β-secretase (BACE) [1]): 0.033 µM | inhibition at 0.3 µM (β-secretase (BACE) [3]; 0.3 μM test compound): 101% | inhibition at 1 µM (β-secretase (BACE) [3]; 1 μM test compound): 114% | inhibition at 3 µM (β-secretase (BACE) [3]; 3 μM test compound): 122%

NC1=Nc2ccc(Oc3ccccc3)cc2CN1C(CNC(=O)C1CCCCC1)c1ccccc1 (stereo not drawn) [Compound 342]
% Inhibition (β-secretase (BACE) [4]; 0.3 μM test compound): 50% | % Inhibition (β-secretase (BACE) [4]; 1 μM test compound): 93%

NC1=Nc2ccc(Oc3ccccc3)cc2CN1C(CNC(=O)C1(c2ccc(Cl)cc2)CCCC1)C1CCCCC1 (stereo not drawn) [Compound 390]
Ki (β-secretase (BACE) [1]): 0.57 µM | inhibition at 0.3 µM (β-secretase (BACE) [4]; 0.3 μM test compound): < 30% | inhibition at 1 µM (β-secretase (BACE) [4]; 1 μM test compound): 50% | inhibition at 3 µM (β-secretase (BACE) [4]; 3 μM test compound): 102%

CC(C)(C)C(=O)NCC(C1CCCCC1)N1Cc2cc(Oc3ccccc3)ccc2N=C1N (stereo not drawn) [Compound 317]
Ki (β-secretase (BACE) [1]): 0.18 µM | inhibition at 0.3 µM (β-secretase (BACE) [4]; 0.3 μM test compound): < 30% | inhibition at 1 µM (β-secretase (BACE) [4]; 1 μM test compound): 66% | inhibition at 3 µM (β-secretase (BACE) [4]; 3 μM test compound): 107% | IC50 (β-secretase (BACE) [2]): 0.39 µM

CN(C(=O)CC(C1CCCCC1)N1Cc2cc(Oc3ccccc3)ccc2N=C1N)C1CCCCC1 (stereo not drawn) [Compound 199]
Ki (β-secretase (BACE) [1]): 0.51 µM | inhibition at 0.3 µM (β-secretase (BACE) [3]; 0.3 μM test compound): < 30% | inhibition at 1 µM (β-secretase (BACE) [3]; 1 μM test compound): < 30% | inhibition at 3 µM (β-secretase (BACE) [3]; 3 μM test compound): 82%

CCCC(CCC(=O)NC1CCCCCC1)N1Cc2cc(Oc3ccccc3)ccc2N=C1N (stereo not drawn) [Compound 128]
Ki (β-secretase (BACE) [1]): 0.13 µM | IC50 (β-secretase (BACE) [2]): 0.072 µM | inhibition at 3 µM (β-secretase (BACE) [3]; 3 μM test compound): 97% | inhibition at 10 µM (β-secretase (BACE) [3]): 108%

NC1=Nc2ccc(Oc3ccccc3)cc2CN1C(CCNC(=O)C1CCCC1)C1CCCCC1 (stereo not drawn) [Compound 392]
% Inhibition (β-secretase (BACE) [4]; 0.3 μM test compound): 75% | % Inhibition (β-secretase (BACE) [4]; 3 μM test compound): 120%

CCCC(CNC(=O)C1CCCCC1)N1Cc2cc(Oc3ccccc3)ccc2N=C1N (stereo not drawn) [Compound 343]
% Inhibition (β-secretase (BACE) [4]; 0.3 μM test compound): 81%

NC1=Nc2ccc(Oc3ccccc3)cc2CN1Cc1cccc(C(=O)N(C2CCCCC2)C2CCCCC2)c1 [Compound 98]
% Inhibition (β-secretase (BACE) [4]; 3 μM test compound): 76% | % Inhibition (β-secretase (BACE) [4]; 10 μM test compound): 99% | % Inhibition (FS) (β-secretase (BACE) [3]; 0.3 μM test compound): 49% | % Inhibition (FS) (β-secretase (BACE) [3]; 1 μM test compound): 93% | % Inhibition (FS) (β-secretase (BACE) [3]; 3 μM test compound): 114%

CCCC(CNC(=O)C12CC3CC(CC(C3)C1)C2)N1Cc2cc(Oc3ccccc3)ccc2N=C1N (stereo not drawn) [Compound 602]
Ki (β-secretase (BACE) [1]): 0.056 µM | inhibition at 0.3 µM (β-secretase (BACE) [3]; 0.3 μM test compound): 78% | inhibition at 1 µM (β-secretase (BACE) [3]; 1 μM test compound): 113% | inhibition at 3 µM (β-secretase (BACE) [3]; 3 μM test compound): 121%

NC1=Nc2ccc(Oc3ccccc3)cc2CN1C(CCNC(=O)C1CCCCC1)C1CCCCC1 (stereo not drawn) [Compound 391]
% Inhibition (β-secretase (BACE) [4]; 0.3 μM test compound): 35% | % Inhibition (β-secretase (BACE) [4]; 1 μM test compound): 93% | % Inhibition (β-secretase (BACE) [4]; 3 μM test compound): 115%

NC1=Nc2ccc(Oc3ccccc3)cc2CN1C(CNC(=O)CCC1CCCC1)C1CCCCC1 (stereo not drawn) [Compound 366]
% Inhibition (β-secretase (BACE) [4]; 0.3 μM test compound): 64%

CC(C)CC(=O)NCC(C1CCCCC1)N1Cc2cc(Oc3ccccc3)ccc2N=C1N (stereo not drawn) [Compound 389]
% Inhibition (β-secretase (BACE) [4]; 0.3 μM test compound): 85% | % Inhibition (β-secretase (BACE) [4]; 1 μM test compound): 112% | % Inhibition (β-secretase (BACE) [4]; 3 μM test compound): 120%

NC1=Nc2ccc(Oc3ccccc3)cc2CN1C(CNC(=O)C12CC3CC(CC(C3)C1)C2)C1CCCCC1 (stereo not drawn) [Compound 312]
Ki (β-secretase (BACE) [1]): 0.039 µM | IC50 (β-secretase (BACE) [2]): 0.039 µM | inhibition at 0.3 µM (β-secretase (BACE) [3]; 0.3 μM test compound): 74% | inhibition at 1 µM (β-secretase (BACE) [3]; 1 μM test compound): 103% | inhibition at 3 µM (β-secretase (BACE) [3]; 3 μM test compound): 115%

CC(C)(C)OC(=O)NCC(C1CCCCC1)N1Cc2cc(Oc3ccccc3)ccc2N=C1N (stereo not drawn) [Compound 257]
Ki (β-secretase (BACE) [1]): 0.056 µM | IC50 (β-secretase (BACE) [2]): 0.083 µM | inhibition at 0.3 µM (β-secretase (BACE) [3]; 0.3 μM test compound): 67% | inhibition at 1 µM (β-secretase (BACE) [3]; 1 μM test compound): 105%

CCCCCC(CCC(=O)NC1CCCCCC1)N1Cc2cc(Oc3ccccc3)ccc2N=C1N (stereo not drawn) [Compound 150]
Ki (β-secretase (BACE) [1]): 0.46 µM | inhibition at 0.3 µM (β-secretase (BACE) [3]; 0.3 μM test compound): < 30% | inhibition at 1 µM (β-secretase (BACE) [3]; 1 μM test compound): < 30% | inhibition at 3 µM (β-secretase (BACE) [3]; 3 μM test compound): 90%

CCCC(CNC(=O)OC(C)(C)C)N1Cc2cc(Oc3ccccc3)ccc2N=C1N (stereo not drawn) [Compound 318]
% Inhibition (β-secretase (BACE) [4]; 0.3 μM test compound): 32% | % Inhibition (β-secretase (BACE) [4]; 1 μM test compound): 70% | % Inhibition (β-secretase (BACE) [4]; 3 μM test compound): 103%

CCCN1Cc2cc(Oc3cccc(NS(=O)(=O)c4cccc5nsnc45)c3)ccc2N=C1N [Compound 247]
IC50 (β-secretase (BACE) [2]): 1.7 µM

Reference: US8436006B2, “2-amino-quinazoline derivatives useful as inhibitors of β-secretase (BACE)” (Jansssen Pharmaceutica N.V., priority 2004, dated 2013)
